≈ marks a conversion by molar mass, not a printed value.
Tests used:
[1] = target: Serine/threonine-protein kinase PLK3 (Homo sapiens, UniProt Q9H4B4); experiment: biochemical
Description: Inhibition of full length human PLK3 expressed in baculovirus-infected Trichoplusia ni cells by scintillation proximity assay

[2] = test system: HCT-116; experiment: cells; details: Homo sapiens, HCT-116, 72 h
Description: Antiproliferative activity against human HCT116 cells after 72 hrs by luminescence-based cell viability assay

[3] = Solubility in 0.05 M phosphate buffer at 200 uM at pH 7.4 after 15 mins by HPLC; type: physicochemical
[4] = Protein binding in human plasma at 2000 ng/mL after 6 hrs by equilibrium dialysis method; type: ADME, cell-free; details: read-out: PPB (converted)
[5] = target: Serine/threonine-protein kinase PLK1 (Homo sapiens, UniProt P53350); experiment: biochemical
Description: Inhibition of human PLK1 kinase domain expressed in baculovirus-infected Trichoplusia ni cells by scintillation proximity assay

[6] = test system: COLO 205; experiment: Antiproliferative activity against human COLO205 cells after 72 hrs by luminescence-based cell viability assay; type: functional; details: COLO 205, 72 h
[7] = target: T1, NUAK family SNF1-like kinase 1 (Homo sapiens, UniProt O60285); experiment: Inhibition of human Nuak1
T1 sequence (O60285 whole entry): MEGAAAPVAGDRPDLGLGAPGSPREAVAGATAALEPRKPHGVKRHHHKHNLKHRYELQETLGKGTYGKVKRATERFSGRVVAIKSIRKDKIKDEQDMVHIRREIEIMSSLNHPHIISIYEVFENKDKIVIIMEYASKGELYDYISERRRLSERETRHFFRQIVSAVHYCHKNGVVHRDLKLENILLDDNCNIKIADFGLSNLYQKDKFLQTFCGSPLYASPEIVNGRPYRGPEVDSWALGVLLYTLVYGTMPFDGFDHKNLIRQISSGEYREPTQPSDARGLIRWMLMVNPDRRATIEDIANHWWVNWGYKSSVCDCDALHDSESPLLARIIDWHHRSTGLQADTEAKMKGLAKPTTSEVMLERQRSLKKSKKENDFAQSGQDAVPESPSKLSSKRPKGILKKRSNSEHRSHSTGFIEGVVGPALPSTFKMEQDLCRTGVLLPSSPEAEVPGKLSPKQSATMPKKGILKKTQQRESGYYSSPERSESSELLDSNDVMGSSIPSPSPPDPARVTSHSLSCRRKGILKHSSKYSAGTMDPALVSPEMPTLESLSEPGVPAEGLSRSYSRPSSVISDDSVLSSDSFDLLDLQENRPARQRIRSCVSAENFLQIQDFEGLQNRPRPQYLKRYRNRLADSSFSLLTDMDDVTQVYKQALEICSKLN

[8] = test system: SK-OV-3; experiment: Antiproliferative activity against human SKOV3 cells after 72 hrs by luminescence-based cell viability assay; type: functional; details: SK-OV-3, 72 h
[9] = target: T2, Phosphatidylinositol 4,5-bisphosphate 3-kinase catalytic subunit delta isoform (Homo sapiens, UniProt O00329); experiment: Inhibition of human PI3Kdelta
T2 sequence (O00329 whole entry): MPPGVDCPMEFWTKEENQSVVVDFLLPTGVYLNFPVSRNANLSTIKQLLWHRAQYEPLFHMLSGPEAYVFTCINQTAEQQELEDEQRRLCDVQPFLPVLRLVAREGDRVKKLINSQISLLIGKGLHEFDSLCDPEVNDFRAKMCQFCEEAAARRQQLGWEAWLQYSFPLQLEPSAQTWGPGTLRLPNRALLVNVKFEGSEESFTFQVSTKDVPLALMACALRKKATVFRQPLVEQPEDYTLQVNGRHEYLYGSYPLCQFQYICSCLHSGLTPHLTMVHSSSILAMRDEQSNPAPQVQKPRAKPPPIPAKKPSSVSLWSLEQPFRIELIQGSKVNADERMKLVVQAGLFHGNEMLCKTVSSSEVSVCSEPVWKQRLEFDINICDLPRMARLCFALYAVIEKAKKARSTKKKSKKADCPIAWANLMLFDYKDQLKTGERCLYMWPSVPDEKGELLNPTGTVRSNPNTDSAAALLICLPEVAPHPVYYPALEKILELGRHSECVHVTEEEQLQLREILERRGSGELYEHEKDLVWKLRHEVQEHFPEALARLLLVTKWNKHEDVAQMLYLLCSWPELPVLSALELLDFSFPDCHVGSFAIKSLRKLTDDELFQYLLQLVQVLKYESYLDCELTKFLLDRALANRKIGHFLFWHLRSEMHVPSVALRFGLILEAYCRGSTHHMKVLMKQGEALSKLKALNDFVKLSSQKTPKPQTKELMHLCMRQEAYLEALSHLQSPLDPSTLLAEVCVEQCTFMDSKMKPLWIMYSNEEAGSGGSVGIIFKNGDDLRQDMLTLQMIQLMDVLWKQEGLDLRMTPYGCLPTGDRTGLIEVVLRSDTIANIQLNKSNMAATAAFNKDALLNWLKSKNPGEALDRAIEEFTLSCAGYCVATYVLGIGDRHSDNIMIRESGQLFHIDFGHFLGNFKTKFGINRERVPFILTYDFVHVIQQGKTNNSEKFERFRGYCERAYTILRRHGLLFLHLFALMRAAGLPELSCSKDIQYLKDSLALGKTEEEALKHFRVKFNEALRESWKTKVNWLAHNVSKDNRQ

[10] = test system: MX1; experiment: Antiproliferative activity against human MX1 cells after 72 hrs by luminescence-based cell viability assay; type: functional; details: MX1, 72 h
[11] = test system: HT-29; experiment: Antiproliferative activity against human HT-29 cells after 72 hrs by luminescence-based cell viability assay; type: functional; details: HT-29, 72 h
[12] = test system: A549; experiment: Antiproliferative activity against human A549 cells after 72 hrs by luminescence-based cell viability assay; type: functional; details: A549, 72 h
[13] = target: Vascular endothelial growth factor receptor 2 (Homo sapiens, UniProt P35968); experiment: Inhibition of human VEGFR2
[14] = target: Platelet-derived growth factor receptor beta (Homo sapiens, UniProt P09619); experiment: Inhibition of human PDGFR1beta
[15] = target: T3, Serine/threonine-protein kinase Nek2 (Homo sapiens, UniProt P51955)
T3 sequence (P51955 whole entry): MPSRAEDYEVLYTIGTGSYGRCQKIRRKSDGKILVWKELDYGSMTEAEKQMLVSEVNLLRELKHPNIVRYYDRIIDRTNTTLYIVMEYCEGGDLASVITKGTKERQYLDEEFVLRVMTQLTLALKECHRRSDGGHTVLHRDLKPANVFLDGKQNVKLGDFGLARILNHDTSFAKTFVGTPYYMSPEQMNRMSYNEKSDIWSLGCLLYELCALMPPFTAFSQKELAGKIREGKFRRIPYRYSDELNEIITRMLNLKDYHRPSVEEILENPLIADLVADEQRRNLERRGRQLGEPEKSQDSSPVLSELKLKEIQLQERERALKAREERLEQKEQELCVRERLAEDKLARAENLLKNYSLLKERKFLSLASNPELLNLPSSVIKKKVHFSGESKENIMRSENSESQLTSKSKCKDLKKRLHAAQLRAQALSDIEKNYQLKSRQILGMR

[16] = target: Serine/threonine-protein kinase pim-1 (Homo sapiens, UniProt P11309); experiment: Inhibition of human PIM1
[17] = target: Phosphatidylinositol 4,5-bisphosphate 3-kinase catalytic subunit gamma isoform (Homo sapiens, UniProt P48736); experiment: Inhibition of human PI3Kgamma

Serine/threonine-protein kinase PLK1, sequence (P53350 whole entry): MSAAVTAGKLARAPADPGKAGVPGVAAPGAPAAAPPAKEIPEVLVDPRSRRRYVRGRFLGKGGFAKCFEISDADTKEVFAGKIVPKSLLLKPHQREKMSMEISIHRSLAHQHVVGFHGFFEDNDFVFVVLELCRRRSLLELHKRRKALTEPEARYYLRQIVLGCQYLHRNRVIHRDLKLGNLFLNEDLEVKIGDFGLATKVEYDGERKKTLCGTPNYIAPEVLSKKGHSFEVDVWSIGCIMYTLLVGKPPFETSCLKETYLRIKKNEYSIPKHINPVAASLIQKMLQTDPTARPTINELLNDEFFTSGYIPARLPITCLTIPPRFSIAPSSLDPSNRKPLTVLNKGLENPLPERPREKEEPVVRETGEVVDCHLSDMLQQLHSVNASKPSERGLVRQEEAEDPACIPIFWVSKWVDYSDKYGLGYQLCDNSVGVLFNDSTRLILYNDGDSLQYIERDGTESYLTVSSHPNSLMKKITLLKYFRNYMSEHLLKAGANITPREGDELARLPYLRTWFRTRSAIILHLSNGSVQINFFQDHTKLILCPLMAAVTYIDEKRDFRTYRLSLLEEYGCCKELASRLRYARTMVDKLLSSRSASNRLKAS
Serine/threonine-protein kinase PLK3, sequence (Q9H4B4 whole entry): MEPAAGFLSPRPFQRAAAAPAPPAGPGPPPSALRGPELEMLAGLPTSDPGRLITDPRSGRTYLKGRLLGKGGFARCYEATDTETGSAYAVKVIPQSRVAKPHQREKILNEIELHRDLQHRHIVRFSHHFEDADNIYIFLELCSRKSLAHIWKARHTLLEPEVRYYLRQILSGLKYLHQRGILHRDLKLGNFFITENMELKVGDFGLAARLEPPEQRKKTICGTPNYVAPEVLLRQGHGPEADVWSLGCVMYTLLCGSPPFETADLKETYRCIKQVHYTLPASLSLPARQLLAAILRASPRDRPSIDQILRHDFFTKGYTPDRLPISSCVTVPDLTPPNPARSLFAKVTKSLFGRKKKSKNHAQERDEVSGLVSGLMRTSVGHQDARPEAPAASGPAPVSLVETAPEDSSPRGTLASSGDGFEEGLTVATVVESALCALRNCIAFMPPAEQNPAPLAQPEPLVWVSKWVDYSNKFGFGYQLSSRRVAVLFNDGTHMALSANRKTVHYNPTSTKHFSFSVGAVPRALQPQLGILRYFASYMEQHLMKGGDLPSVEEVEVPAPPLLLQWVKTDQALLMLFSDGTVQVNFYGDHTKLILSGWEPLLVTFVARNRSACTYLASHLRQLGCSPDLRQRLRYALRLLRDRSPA
Vascular endothelial growth factor receptor 2, sequence (P35968 whole entry): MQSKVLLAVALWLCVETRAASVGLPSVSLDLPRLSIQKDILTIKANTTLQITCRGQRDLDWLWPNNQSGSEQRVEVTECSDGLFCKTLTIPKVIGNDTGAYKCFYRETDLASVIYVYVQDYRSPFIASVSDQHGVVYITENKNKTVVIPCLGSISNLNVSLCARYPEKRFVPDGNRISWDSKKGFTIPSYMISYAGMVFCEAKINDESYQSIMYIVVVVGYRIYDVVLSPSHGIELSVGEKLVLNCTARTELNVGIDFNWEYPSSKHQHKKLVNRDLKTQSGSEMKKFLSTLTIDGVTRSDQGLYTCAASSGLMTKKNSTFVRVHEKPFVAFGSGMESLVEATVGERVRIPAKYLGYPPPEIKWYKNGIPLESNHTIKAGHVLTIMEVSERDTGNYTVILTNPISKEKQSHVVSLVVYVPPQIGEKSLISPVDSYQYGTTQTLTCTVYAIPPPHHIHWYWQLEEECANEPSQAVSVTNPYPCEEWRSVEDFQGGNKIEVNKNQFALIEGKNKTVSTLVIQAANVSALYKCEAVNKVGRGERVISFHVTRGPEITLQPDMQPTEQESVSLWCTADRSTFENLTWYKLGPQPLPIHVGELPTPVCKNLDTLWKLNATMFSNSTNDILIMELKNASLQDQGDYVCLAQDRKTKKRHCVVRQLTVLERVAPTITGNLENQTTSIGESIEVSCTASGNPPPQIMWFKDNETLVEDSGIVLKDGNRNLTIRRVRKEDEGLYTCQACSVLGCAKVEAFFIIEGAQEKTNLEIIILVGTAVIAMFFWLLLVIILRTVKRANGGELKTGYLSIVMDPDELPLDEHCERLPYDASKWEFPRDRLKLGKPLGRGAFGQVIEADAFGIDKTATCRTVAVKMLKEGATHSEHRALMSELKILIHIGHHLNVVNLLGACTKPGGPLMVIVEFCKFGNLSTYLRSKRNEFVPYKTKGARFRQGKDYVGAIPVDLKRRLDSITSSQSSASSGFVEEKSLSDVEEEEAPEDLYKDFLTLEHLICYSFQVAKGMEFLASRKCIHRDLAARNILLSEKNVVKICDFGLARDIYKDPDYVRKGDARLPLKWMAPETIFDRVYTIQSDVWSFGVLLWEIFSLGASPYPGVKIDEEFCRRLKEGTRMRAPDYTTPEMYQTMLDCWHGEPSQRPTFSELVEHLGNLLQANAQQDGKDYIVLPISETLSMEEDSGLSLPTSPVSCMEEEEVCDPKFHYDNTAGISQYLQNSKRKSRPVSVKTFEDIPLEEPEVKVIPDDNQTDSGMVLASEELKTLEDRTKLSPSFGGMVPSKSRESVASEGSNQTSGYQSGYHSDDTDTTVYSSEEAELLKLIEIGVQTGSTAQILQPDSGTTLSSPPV
Platelet-derived growth factor receptor beta, sequence (P09619 whole entry): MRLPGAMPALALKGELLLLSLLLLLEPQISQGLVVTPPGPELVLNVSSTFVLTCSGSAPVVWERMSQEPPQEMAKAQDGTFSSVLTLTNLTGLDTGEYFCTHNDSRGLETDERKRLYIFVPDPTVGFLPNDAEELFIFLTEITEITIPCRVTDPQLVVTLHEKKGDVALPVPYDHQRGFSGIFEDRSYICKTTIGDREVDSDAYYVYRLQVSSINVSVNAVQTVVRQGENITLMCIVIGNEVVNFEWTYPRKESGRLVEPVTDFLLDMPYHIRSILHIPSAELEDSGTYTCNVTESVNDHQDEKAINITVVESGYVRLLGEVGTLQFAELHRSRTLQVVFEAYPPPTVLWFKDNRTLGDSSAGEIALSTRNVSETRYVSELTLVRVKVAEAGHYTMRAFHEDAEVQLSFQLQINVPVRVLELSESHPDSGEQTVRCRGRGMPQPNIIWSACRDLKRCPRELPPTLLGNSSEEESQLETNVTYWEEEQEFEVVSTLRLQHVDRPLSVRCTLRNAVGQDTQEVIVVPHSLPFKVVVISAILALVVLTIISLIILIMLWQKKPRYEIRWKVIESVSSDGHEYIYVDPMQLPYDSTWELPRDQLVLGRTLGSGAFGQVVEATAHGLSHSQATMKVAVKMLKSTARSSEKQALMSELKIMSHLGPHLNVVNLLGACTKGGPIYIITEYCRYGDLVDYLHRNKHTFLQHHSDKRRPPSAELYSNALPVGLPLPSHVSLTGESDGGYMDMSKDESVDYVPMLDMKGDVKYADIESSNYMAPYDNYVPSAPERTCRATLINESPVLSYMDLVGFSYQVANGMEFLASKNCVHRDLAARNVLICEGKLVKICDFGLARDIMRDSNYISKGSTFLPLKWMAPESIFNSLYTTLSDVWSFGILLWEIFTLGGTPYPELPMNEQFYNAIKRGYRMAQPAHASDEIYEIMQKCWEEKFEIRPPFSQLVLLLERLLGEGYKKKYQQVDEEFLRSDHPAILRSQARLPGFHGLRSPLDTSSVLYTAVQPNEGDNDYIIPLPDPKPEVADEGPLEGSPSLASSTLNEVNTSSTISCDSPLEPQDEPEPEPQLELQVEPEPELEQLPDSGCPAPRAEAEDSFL
Serine/threonine-protein kinase pim-1, sequence (P11309 whole entry, canonical isoform): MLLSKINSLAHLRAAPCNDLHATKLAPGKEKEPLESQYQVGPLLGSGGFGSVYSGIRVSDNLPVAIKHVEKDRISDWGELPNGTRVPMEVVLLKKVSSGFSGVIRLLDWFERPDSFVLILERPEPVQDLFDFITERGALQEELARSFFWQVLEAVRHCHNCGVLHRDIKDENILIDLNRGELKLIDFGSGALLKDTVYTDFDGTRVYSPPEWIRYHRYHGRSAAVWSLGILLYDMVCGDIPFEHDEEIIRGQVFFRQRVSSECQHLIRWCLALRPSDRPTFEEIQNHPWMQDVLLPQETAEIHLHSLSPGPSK

IC50 [1] | IC50 [2] | solubility at 0.25 h, 200 µM [3] | fraction unbound at 6 h, 2000 ng/mL [4] | IC50 [5] | Structure (SMILES) | other results
 | 17 nM | ≥ 200 µM | 0.031 |  | CC(Oc1cc(-n2cnc3ccc(O[C@H]4CCCN(C)CC4)cc32)sc1C(N)=O)c1ccccc1Cl (single isomer, unassigned) | 
550 nM | 30 nM | 109 µM (≈ 60.9 µg/mL) | 0.023 | 7 nM | CC(Oc1cc(-n2cnc3ccc(OCC4CCN(C)CC4)cc32)sc1C(N)=O)c1ccccc1C(F)(F)F (single isomer, unassigned) [GSK-326090A] | 
 | 13 nM | 200 µM (≈ 105 µg/mL) | 0.02 |  | CC(Oc1cc(-n2cnc3ccc(O[C@@H]4CCCN(C)CC4)cc32)sc1C(N)=O)c1ccccc1Cl (single isomer, unassigned) | 
41 nM | 476 nM | 1 µM (≈ 0.461 µg/mL) | 0.005 | 3 nM | COc1ccc2ncn(-c3cc(O[C@H](C)c4ccccc4C(F)(F)F)c(C(N)=O)s3)c2c1 [GSK-317315A] | 
630 nM | 11 nM | ≥ 190 µM | 0.085 |  | CC(Oc1cc(-n2cnc3ccc(OC4CCN(C)CC4)cc32)sc1C(N)=O)c1ccccc1Cl (single isomer, unassigned) [GSK-579289A] | IC50 [6]: 5 nM; IC50 [7]: 2000 nM; IC50 [8]: 11 nM; IC50 [9]: 440 nM; IC50 [10]: 9 nM; IC50 [11]: 3 nM; IC50 [12]: 11 nM; IC50 [13]: 1200 nM; IC50 [14]: 420 nM; IC50 [15]: 21 nM; IC50 [16]: 310 nM
270 nM | 12 nM | 179 µM (≈ 97.5 µg/mL) | 0.052 |  | CC(Oc1cc(-n2cnc3ccc(OC4CCN(C)CC4)cc32)sc1C(N)=O)c1ccccc1C(F)(F)F (single isomer, unassigned) | IC50 [6]: 5 nM; IC50 [7]: 840 nM; IC50 [8]: 32 nM; IC50 [9]: 530 nM; IC50 [10]: 10 nM; IC50 [11]: 3 nM; IC50 [12]: 14 nM; IC50 [13]: 800 nM; IC50 [14]: 110 nM; IC50 [17]: 390 nM; IC50 [15]: 25 nM; IC50 [16]: 340 nM
 | 15 nM | 104 µM (≈ 55.2 µg/mL) | 0.034 |  | CC(Oc1cc(-n2cnc3ccc(OC4CCNCC4)cc32)sc1C(N)=O)c1ccccc1C(F)(F)F (single isomer, unassigned) | 

Further lines, the compound ahead of its results:

Structure (SMILES) | IC50 [1] | IC50 [2] | solubility at 0.25 h, 200 µM [3] | fraction unbound at 6 h, 2000 ng/mL [4] | IC50 [5] | other results
COc1cc2ncn(-c3cc(O[C@@H](C)c4ccccc4Cl)c(C(N)=O)s3)c2cc1OC [GSK-237700A] | 44 nM | 994 nM |  |  |  | 
CC(Oc1cc(-n2cnc3ccc(OCC4CCN(C)CC4)cc32)sc1C(N)=O)c1ccccc1Cl (single isomer, unassigned) [GSK-571989A] | 1100 nM | 34 nM | ≥ 172 µM | 0.021 | 6 nM | 
COc1cc2ncn(-c3cc(OCc4ccccc4Cl)c(C(N)=O)s3)c2cc1OC [GW852849X] | 9 nM | 1140 nM |  |  |  | 
COc1ccc2ncn(-c3cc(O[C@H](C)c4ccccc4Cl)c(C(N)=O)s3)c2c1 [GSK-317314A] | 35 nM | 321 nM | 3 µM (≈ 1.28 µg/mL) | 0.005 | 1 nM | 
COc1cc2ncn(-c3cc(O[C@H](C)c4ccccc4Cl)c(C(N)=O)s3)c2cc1OC [GSK-237701A] | 6 nM | 25 nM | 2 µM (≈ 0.916 µg/mL) |  |  | 
CC(Oc1cc(-n2cnc3ccc(OCCCN(C)C)cc32)sc1C(N)=O)c1ccccc1Cl (single isomer, unassigned) |  | 32 nM | 161 µM (≈ 80.3 µg/mL) | 0.026 |  | 
CC(Oc1cc(-n2cnc3ccc(OC[C@@H](O)CO)cc32)sc1C(N)=O)c1ccccc1Cl (single isomer, unassigned) [GSK-978744A] | 61 nM | 73 nM | 15 µM (≈ 7.32 µg/mL) |  | 1 nM | 
C[C@@H](Oc1cc(-n2cnc3ccc(OC[C@H](O)CN4CCCC4)cc32)sc1C(N)=O)c1ccccc1Cl (single isomer, unassigned) |  | 45 nM | 170 µM (≈ 92 µg/mL) | 0.038 |  | 
